Laboratory results as given in patent US20110251379A1, “COMPOUNDS USEFUL FOR TREATING NEURODEGENERATIVE DISORDERS” (Satori Pharmaceuticals, Inc., priority 2010, published 2011).

Tested on: amyloid-beta (1-42) peptide
Assay: ELISA assay of amyloid-beta (1-42) in conditioned media of 2B7 cells
Assay type: cell-based
Conditions: for IC50: Aβ-42, 2B7 cells, 5 hours, read-out: IC50 range
Summary of the method: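 2B7 cells were treated with compounds for 5 hours at 37° C in media with 1% DMSO. Conditioned media, diluted 1:2 in blocking buffer, went into a sandwich ELISA with 6E10 capture and an HRP-labelled detection antibody, read by TMB at 450 nm. Values came from an Aβ peptide standard curve.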

SMILES	IC50	% Inhibition (range) (Aβ-42, 20 umol/L)
CCC(=O)OC(C1CC(C)C2C(O1)C(O)C1(C)C3CCC4C(C)(C)C(OC5OCC(O)C(O)C5O)CCC45CC35CCC21C)C(C)(C)O (stereo not drawn)	≤ 1 µM	
CNCC1CC(C)C2C(O1)C(O)C1(C)C3CCC4C(C)(C)C(OC5OCC(O)C(O)C5O)CCC45CC35CCC21C (stereo not drawn)	> 10 µM	
CC(=O)OC(C1CC(C)C2C(O1)C(O)C1(C)C3CCC4C(C)(CCC(O)C4(C)C)C3=CCC21C)C(C)(C)O (stereo not drawn)	≤ 1 µM	
CC(=O)OC(C1CC(C)C2C(O1)C(OC(N)=O)C1(C)C3CCC4C(C)(C)C(OC(N)=O)CCC45CC35CCC21C)C(C)(C)O (stereo not drawn)	> 10 µM	
CC(=O)OC(C1CC(C)C2C(O1)C(OC(=O)C(F)(F)F)C1(C)C3CCC4C(C)(C)C(OC(=O)C(F)(F)F)CCC45CC35CCC21C)C(C)(C)O (stereo not drawn)	≤ 1 µM	
CC(=O)OC(C1CC(C)C2C(O1)C(OC(=O)C(F)(F)F)C1(C)C3CCC4C(C)(C)C(O)CCC45CC35CCC21C)C(C)(C)O (stereo not drawn)	≤ 1 µM	
CC(=O)OC(C1CC(C)C2C(O1)C(OC(N)=O)C1(C)C3CCC4C(C)(C)C(O)CCC45CC35CCC21C)C(C)(C)O (stereo not drawn)	> 10 µM	
CC(=O)OC(C1CC(C)C2C(O1)C(O)C1(C)C3CCC4C(C)(C)C(OC(=O)C5CCN5)CCC45CC35CCC21C)C(C)(C)O (stereo not drawn)	≤ 1 µM	
CCN1CCOC(OC2CCC34CC35CCC3(C)C6C(C)CC(C(OC(C)=O)C(C)(C)O)OC6C(OC(C)=O)C3(C)C5CCC4C2(C)C)C1 (stereo not drawn)	> 10 µM	
CC1CC(CNCc2ccccc2)OC2C1C1(C)CCC34CC35CCC(O)C(C)(C)C5CCC4C1(C)C2O (stereo not drawn)	> 10 µM	
CC1CC(CNC(C)(C)C)OC2C1C1(C)CCC34CC35CCC(O)C(C)(C)C5CCC4C1(C)C2O (stereo not drawn)	> 10 µM	
CC1CC(CN(C)C)OC2C1C1(C)CCC34CC35CCC(O)C(C)(C)C5CCC4C1(C)C2O (stereo not drawn)	> 10 µM	
CC1CC(CNCC(F)(F)F)OC2C1C1(C)CCC34CC35CCC(O)C(C)(C)C5CCC4C1(C)C2O (stereo not drawn)	> 10 µM	
C=C(C)C(OC(C)=O)C1CC(C)C2C(O1)C(O)C1(C)C3CCC4C(C)(C)C(OC5CN(CC(=O)N(C)C)CCO5)CCC45CC35CCC21C (stereo not drawn)	1 to 10 µM	
CC(=O)N(CC1CC(C)C2C(O1)C(O)C1(C)C3CCC4C(C)(C)C(O)CCC45CC35CCC21C)C(C)(C)C (stereo not drawn)	< 10 µM	
CC(=O)N(C)CC1CC(C)C2C(O1)C(O)C1(C)C3CCC4C(C)(C)C(O)CCC45CC35CCC21C (stereo not drawn)	> 10 µM	
CC(=O)N(CC1CC(C)C2C(O1)C(O)C1(C)C3CCC4C(C)(C)C(O)CCC45CC35CCC21C)CC(F)(F)F (stereo not drawn)	> 10 µM	
COC(=O)C1CC(C)C2C(O1)C(O)C1(C)C3CCC4C(C)(C)C(O)CCC45CC35CCC21C (stereo not drawn)	> 10 µM	
CC1CC(C(=O)NC2CCC2)OC2C1C1(C)CCC34CC35CCC(O)C(C)(C)C5CCC4C1(C)C2O (stereo not drawn)	> 10 µM	
CC1CC(C(=O)NCc2ccccc2)OC2C1C1(C)CCC34CC35CCC(O)C(C)(C)C5CCC4C1(C)C2O (stereo not drawn)	> 10 µM	
CC1CC(CN)OC2C1C1(C)CCC34CC35CCC(O)C(C)(C)C5CCC4C1(C)C2O (stereo not drawn)	> 10 µM	
CC(=O)NCC1CC(C)C2C(O1)C(O)C1(C)C3CCC4C(C)(C)C(O)CCC45CC35CCC21C (stereo not drawn)	> 10 µM	
CC1CC(CNC(C)(C)C)OC2C1C1(C)CCC34CC35CCC(OS(C)(=O)=O)C(C)(C)C5CCC4C1(C)C2O (stereo not drawn)	> 10 µM	

SMILES	IC50	% Inhibition (range) (Aβ-42, 20 umol/L)
CCC(=O)N(CC1CC(C)C2C(O1)C(O)C1(C)C3CCC4C(C)(C)C(O)CCC45CC35CCC21C)C(C)(C)C (stereo not drawn)	> 10 µM	
CC1CC(C(=O)N2CCC2)OC2C1C1(C)CCC34CC35CCC(O)C(C)(C)C5CCC4C1(C)C2O (stereo not drawn)	> 10 µM	
CC1CC(C(=O)N2CCOCC2)OC2C1C1(C)CCC34CC35CCC(O)C(C)(C)C5CCC4C1(C)C2O (stereo not drawn)	> 10 µM	
CC1CC(CNS(C)(=O)=O)OC2C1C1(C)CCC34CC35CCC(O)C(C)(C)C5CCC4C1(C)C2O (stereo not drawn)	> 10 µM	
CC(=O)N(CC1CC(C)C2C(O1)C(O)C1(C)C3CCC4C(C)(C)C(O)CCC45CC35CCC21C)C1COC1 (stereo not drawn)	> 10 µM	
CC1CC(CN(C2COC2)S(C)(=O)=O)OC2C1C1(C)CCC34CC35CCC(O)C(C)(C)C5CCC4C1(C)C2O (stereo not drawn)	> 10 µM	
CC(=O)N(CC1CC1)CC1CC(C)C2C(O1)C(O)C1(C)C3CCC4C(C)(C)C(O)CCC45CC35CCC21C (stereo not drawn)	> 10 µM	
CC1CC(CN(CC2CC2)S(C)(=O)=O)OC2C1C1(C)CCC34CC35CCC(O)C(C)(C)C5CCC4C1(C)C2O (stereo not drawn)	> 10 µM	
CC(=O)N(CC1CC(C)C2C(O1)C(O)C1(C)C3CCC4C(C)(C)C(O)CCC45CC35CCC21C)CC(C)(C)O (stereo not drawn)	> 10 µM	
CC(=O)N(CC1CC(C)C2C(O1)C(O)C1(C)C3CCC4C(C)(C)C(O)CCC45CC35CCC21C)C1CCC1 (stereo not drawn)	> 10 µM	
CC1CC(CN2CCCC2=O)OC2C1C1(C)CCC34CC35CCC(O)C(C)(C)C5CCC4C1(C)C2O (stereo not drawn)	> 10 µM	
CC1CC(CN2C(=O)OCC2(C)C)OC2C1C1(C)CCC34CC35CCC(O)C(C)(C)C5CCC4C1(C)C2O (stereo not drawn)	> 10 µM	
CC(=O)N(CC1CC(C)C2C(O1)C(O)C1(C)C3CCC4C(C)(C)C(OC(=O)c5cccnc5)CCC45CC35CCC21C)C1CCC1 (stereo not drawn)	> 10 µM	
CC(=O)N(CC1CC(C)C2C(O1)C(O)C1(C)C3CCC4C(C)(C)C(OC(=O)c5cccnc5)CCC45CC35CCC21C)C(C)(C)C (stereo not drawn)	> 10 µM	
CC1CC(CN(C)C(=O)C(C)(C)C)OC2C1C1(C)CCC34CC35CCC(O)C(C)(C)C5CCC4C1(C)C2O (stereo not drawn)	> 10 µM	
CC1CC(CN(C)C(=O)C(C)(C)C)OC2C1C1(C)CCC34CC35CCC(OC(=O)c3cccnc3)C(C)(C)C5CCC4C1(C)C2O (stereo not drawn)	> 10 µM	
CC(=O)N(Cc1ccccc1)CC1CC(C)C2C(O1)C(O)C1(C)C3CCC4C(C)(C)C(OC(=O)c5cccnc5)CCC45CC35CCC21C (stereo not drawn)	1 to 10 µM	
CC(=O)N(CC1CC(C)C2C(O1)C(O)C1(C)C3CCC4C(C)(C)C(O)CCC45CC35CCC21C)CC(C)(C)C (stereo not drawn)	1 to 10 µM	
COC(=O)N(CC1CC(C)C2C(O1)C(O)C1(C)C3CCC4C(C)(C)C(O)CCC45CC35CCC21C)C(C)(C)C (stereo not drawn)	> 10 µM	
CC(C)NC(=O)N(Cc1ccccc1)CC1CC(C)C2C(O1)C(O)C1(C)C3CCC4C(C)(C)C(O)CCC45CC35CCC21C (stereo not drawn)	> 10 µM	
CC(=O)N(Cc1ccccc1F)CC1CC(C)C2C(O1)C(O)C1(C)C3CCC4C(C)(C)C(O)CCC45CC35CCC21C (stereo not drawn)	1 to 10 µM	
CC(=O)N(Cc1cccc(F)c1)CC1CC(C)C2C(O1)C(O)C1(C)C3CCC4C(C)(C)C(O)CCC45CC35CCC21C (stereo not drawn)	≤ 1 µM	
CC(=O)N(Cc1ccc(F)cc1)CC1CC(C)C2C(O1)C(O)C1(C)C3CCC4C(C)(C)C(O)CCC45CC35CCC21C (stereo not drawn)	1 to 10 µM	

SMILES	IC50	% Inhibition (range) (Aβ-42, 20 umol/L)
CC(=O)N(Cc1cccnc1)CC1CC(C)C2C(O1)C(O)C1(C)C3CCC4C(C)(C)C(O)CCC45CC35CCC21C (stereo not drawn)	> 10 µM	
CC(=O)N(Cc1ccncc1)CC1CC(C)C2C(O1)C(O)C1(C)C3CCC4C(C)(C)C(O)CCC45CC35CCC21C (stereo not drawn)	> 10 µM	
CC(=O)N(Cc1cc(F)cc(F)c1)CC1CC(C)C2C(O1)C(O)C1(C)C3CCC4C(C)(C)C(OC(=O)c5cccnc5)CCC45CC35CCC21C (stereo not drawn)	1 to 10 µM	
CC(=O)N(Cc1cc(F)c(F)c(F)c1)CC1CC(C)C2C(O1)C(O)C1(C)C3CCC4C(C)(C)C(O)CCC45CC35CCC21C (stereo not drawn)	1 to 10 µM	
CC(=O)N(Cc1cc(F)cc(F)c1)CC1CC(C)C2C(O1)C(O)C1(C)C3CCC4C(C)(C)C(OC(=O)c5ccccn5)CCC45CC35CCC21C (stereo not drawn)	1 to 10 µM	
CC1CC(CN(Cc2ccccc2)C(=O)N(C)C)OC2C1C1(C)CCC34CC35CCC(O)C(C)(C)C5CCC4C1(C)C2O (stereo not drawn)	> 10 µM	
CC(=O)N(CC1CC(C)C2C(O1)C(O)C1(C)C3CCC4C(C)(C)C(O)CCC45CC35CCC21C)C(C)c1ccc(F)cc1 (stereo not drawn)	1 to 10 µM	
CC(=O)N(Cc1cc(F)cc(F)c1)CC1CC(C)C2C(O1)C(O)C1(C)C3CCC4C(C)(C)C(OC(=O)c5ccncc5)CCC45CC35CCC21C (stereo not drawn)	> 10 µM	
CC(=O)N(Cc1cc(F)cc(F)c1)CC1CC(C)C2C(O1)C(O)C1(C)C3CCC4C(C)(C)C(OC(=O)C5CN(C(=O)OC(C)(C)C)C5)CCC45CC35CCC21C (stereo not drawn)	> 10 µM	
CC1CC(C(OC(=O)C(C)(C)C)C(C)(C)O)OC2C1C1(C)CCC34CC35CCC(O)C(C)(C)C5CCC4C1(C)C2O (stereo not drawn)	> 1 µM	
CC1CC(C2OC(=O)OC2(C)C)OC2C1C1(C)CCC34CC35CCC(O)C(C)(C)C5CCC4C1(C)C2O (stereo not drawn)	> 10 µM	
CC(=O)N(Cc1cc(F)cc(F)c1)CC1CC(C)C2C(O1)C(O)C1(C)C3CCC4C(C)(C)C(OC(=O)CN5CCOCC5)CCC45CC35CCC21C (stereo not drawn)	> 10 µM	
CC(=O)N(Cc1cc(F)cc(F)c1)CC1CC(C)C2C(O1)C(O)C1(C)C3CCC4C(C)(C)C(OC(=O)Cc5cccnc5)CCC45CC35CCC21C (stereo not drawn)	> 10 µM	
CC(=O)OC(C1CC(C)C2C(O1)C(O)C1(C)C3CCC4C(C)(C)C(OC(=O)C5(C)COC5)CCC45CC35CCC21C)C(C)(C)O (stereo not drawn)	≤ 1 µM	
CC1CC(C(O)C(C)(C)O)OC2C1C1(C)CCC34CC35CCC(OC3CN(C(=O)c6ccc(F)cc6)CCO3)C(C)(C)C5CCC4C1(C)C2O (stereo not drawn)	1 to 10 µM	
CC1CC(C(O)C(C)(C)O)OC2C1C1(C)CCC34CC35CCC(OC3CN(C(=O)c6ccccn6)CCO3)C(C)(C)C5CCC4C1(C)C2O (stereo not drawn)	> 10 µM	
CC1CC(C(O)C(C)(C)O)OC2C1C1(C)CCC34CC35CCC(OC3CN(C(=O)CN(C)C)CCO3)C(C)(C)C5CCC4C1(C)C2O (stereo not drawn)	1 to 10 µM	
CC1CC(C(O)C(C)(C)O)OC2C1C1(C)CCC34CC35CCC(OC3CN(C(=O)CN6CCCC6)CCO3)C(C)(C)C5CCC4C1(C)C2O (stereo not drawn)	1 to 10 µM	
CC1CC(C(O)C(C)(C)O)OC2C1C1(C)CCC34CC35CCC(OC3CN(C(=O)C6CCN(C)CC6)CCO3)C(C)(C)C5CCC4C1(C)C2O (stereo not drawn)	1 to 10 µM	
CC1CC(C(O)C(C)(C)O)OC2C1C1(C)CCC34CC35CCC(OC3CN(C(=O)CC6CCCCC6)CCO3)C(C)(C)C5CCC4C1(C)C2O (stereo not drawn)	≤ 1 µM	
CC1CC(C(O)C(C)(C)O)OC2C1C1(C)CCC34CC35CCC(OC3CN(C(=O)C6CCC6)CCO3)C(C)(C)C5CCC4C1(C)C2O (stereo not drawn)	< 10 µM	
CC1CC(CCC(=O)O)OC2C1C1(C)CCC34CC35CCC(OC3CN(C(=O)CC6CC6)CCO3)C(C)(C)C5CCC4C1(C)C2O (stereo not drawn)	1 to 10 µM	
CC1CC(C(O)C(C)(C)O)OC2C1C1(C)CCC34CC35CCC(OC3CN(C6CCOC6)CCO3)C(C)(C)C5CCC4C1(C)C2O (single isomer, unassigned) [drawing 1105]		F (% inhibition of <25%)
